Legend:
[1] = system: HIF-1α / PHDs in murine colon; assay: tributyrin oral gavage with or without MCPA in antibiotic SCFA-depleted mice; assay type: in vivo
Method: We next confirmed that butyrate functions as a PHD inhibitor in vivo through antibiotic-mediated depletion of the gut microbiota and SCFAs in mice. […] We administered tributyrin (200 μL), a prodrug of butyrate composed of a glycerol backbone with three butyrate moieties, to SCFA-depleted mice via oral gavage every day for three days with glycerol as a control. Additionally, some mice given tributyrin were subjected with a rectal gavage of 60 mM MCPA to inhibit butyrate metabolism 4 h prior to sacrifice. […] 60 mM MCPA was chosen as a well-tolerated dose that inhibited β-oxidation in mice and rats. […] HIF-la protein was also diminished in epithelial scrapings (FIG. 8B) and whole colon tissue (FIG. 8C) with antibiotic treatment, which was also rescued with tributyrin supplementation with or without MCPA. […] The stabilization of HIF-1α in whole colon tissue also is in agreement with our findings in HMEC-1 and A549 cells that PHD inhibition by butyrate expands to beyond just IECs alone.

[2] = oral gavage, 1 h after dosing, mice; cited from earlier work
[3] = tributyrin with or without MCPA

CCCC(=O)OCC(COC(=O)CCC)OC(=O)CCC [tributyrin]
HIF-1α protein after antibiotic depletion ([1]; epithelial scrapings and whole colon tissue, tributyrin with or without MCPA): rescued
colon tissue 2-OG levels after antibiotic depletion [1, 3]: recovered
colon tissue butyrate levels after antibiotic depletion [1, 3]: rescued
HIF-1α target gene Bnip3l mRNA after antibiotic depletion ([1]; whole colon tissue and epithelial scrapings, tributyrin 200 μL oral gavage 3 d, with or without MCPA): normalized
plasma butyrate concentration [2]: > 1 mM

— patent US20250235418A1, “Butyrate Analogues and Methods of Use for HIF Stabilization and Treatment of Bowel Disease” (THE REGENTS OF THE UNIVERSITY OF COLORADO, A BODY CORPORATE, priority 2022, published 2025)
